Measurements as given in publication PMC7442650, “A machine learning-based chemoproteomic approach to identify drug targets and binding sites in complex proteomes” (Nature Communications, 2020).
Read-outs that look alike come from different tables or passages of the source.

Legend:
MAPK2K1 (MAP2K1) = MAPK2K1 (MAP2K1) (Homo sapiens, UniProt Q02750); assay: LiP-Quant, HeLa lysate; type: binding
PLEC (Plectin) = PLEC (Plectin) (Homo sapiens, UniProt Q15149); assay: LiP-Quant, HeLa lysate; type: binding; conditions: peptide QRAEAER
Chain of PLEC (Plectin) (Q15149 whole entry): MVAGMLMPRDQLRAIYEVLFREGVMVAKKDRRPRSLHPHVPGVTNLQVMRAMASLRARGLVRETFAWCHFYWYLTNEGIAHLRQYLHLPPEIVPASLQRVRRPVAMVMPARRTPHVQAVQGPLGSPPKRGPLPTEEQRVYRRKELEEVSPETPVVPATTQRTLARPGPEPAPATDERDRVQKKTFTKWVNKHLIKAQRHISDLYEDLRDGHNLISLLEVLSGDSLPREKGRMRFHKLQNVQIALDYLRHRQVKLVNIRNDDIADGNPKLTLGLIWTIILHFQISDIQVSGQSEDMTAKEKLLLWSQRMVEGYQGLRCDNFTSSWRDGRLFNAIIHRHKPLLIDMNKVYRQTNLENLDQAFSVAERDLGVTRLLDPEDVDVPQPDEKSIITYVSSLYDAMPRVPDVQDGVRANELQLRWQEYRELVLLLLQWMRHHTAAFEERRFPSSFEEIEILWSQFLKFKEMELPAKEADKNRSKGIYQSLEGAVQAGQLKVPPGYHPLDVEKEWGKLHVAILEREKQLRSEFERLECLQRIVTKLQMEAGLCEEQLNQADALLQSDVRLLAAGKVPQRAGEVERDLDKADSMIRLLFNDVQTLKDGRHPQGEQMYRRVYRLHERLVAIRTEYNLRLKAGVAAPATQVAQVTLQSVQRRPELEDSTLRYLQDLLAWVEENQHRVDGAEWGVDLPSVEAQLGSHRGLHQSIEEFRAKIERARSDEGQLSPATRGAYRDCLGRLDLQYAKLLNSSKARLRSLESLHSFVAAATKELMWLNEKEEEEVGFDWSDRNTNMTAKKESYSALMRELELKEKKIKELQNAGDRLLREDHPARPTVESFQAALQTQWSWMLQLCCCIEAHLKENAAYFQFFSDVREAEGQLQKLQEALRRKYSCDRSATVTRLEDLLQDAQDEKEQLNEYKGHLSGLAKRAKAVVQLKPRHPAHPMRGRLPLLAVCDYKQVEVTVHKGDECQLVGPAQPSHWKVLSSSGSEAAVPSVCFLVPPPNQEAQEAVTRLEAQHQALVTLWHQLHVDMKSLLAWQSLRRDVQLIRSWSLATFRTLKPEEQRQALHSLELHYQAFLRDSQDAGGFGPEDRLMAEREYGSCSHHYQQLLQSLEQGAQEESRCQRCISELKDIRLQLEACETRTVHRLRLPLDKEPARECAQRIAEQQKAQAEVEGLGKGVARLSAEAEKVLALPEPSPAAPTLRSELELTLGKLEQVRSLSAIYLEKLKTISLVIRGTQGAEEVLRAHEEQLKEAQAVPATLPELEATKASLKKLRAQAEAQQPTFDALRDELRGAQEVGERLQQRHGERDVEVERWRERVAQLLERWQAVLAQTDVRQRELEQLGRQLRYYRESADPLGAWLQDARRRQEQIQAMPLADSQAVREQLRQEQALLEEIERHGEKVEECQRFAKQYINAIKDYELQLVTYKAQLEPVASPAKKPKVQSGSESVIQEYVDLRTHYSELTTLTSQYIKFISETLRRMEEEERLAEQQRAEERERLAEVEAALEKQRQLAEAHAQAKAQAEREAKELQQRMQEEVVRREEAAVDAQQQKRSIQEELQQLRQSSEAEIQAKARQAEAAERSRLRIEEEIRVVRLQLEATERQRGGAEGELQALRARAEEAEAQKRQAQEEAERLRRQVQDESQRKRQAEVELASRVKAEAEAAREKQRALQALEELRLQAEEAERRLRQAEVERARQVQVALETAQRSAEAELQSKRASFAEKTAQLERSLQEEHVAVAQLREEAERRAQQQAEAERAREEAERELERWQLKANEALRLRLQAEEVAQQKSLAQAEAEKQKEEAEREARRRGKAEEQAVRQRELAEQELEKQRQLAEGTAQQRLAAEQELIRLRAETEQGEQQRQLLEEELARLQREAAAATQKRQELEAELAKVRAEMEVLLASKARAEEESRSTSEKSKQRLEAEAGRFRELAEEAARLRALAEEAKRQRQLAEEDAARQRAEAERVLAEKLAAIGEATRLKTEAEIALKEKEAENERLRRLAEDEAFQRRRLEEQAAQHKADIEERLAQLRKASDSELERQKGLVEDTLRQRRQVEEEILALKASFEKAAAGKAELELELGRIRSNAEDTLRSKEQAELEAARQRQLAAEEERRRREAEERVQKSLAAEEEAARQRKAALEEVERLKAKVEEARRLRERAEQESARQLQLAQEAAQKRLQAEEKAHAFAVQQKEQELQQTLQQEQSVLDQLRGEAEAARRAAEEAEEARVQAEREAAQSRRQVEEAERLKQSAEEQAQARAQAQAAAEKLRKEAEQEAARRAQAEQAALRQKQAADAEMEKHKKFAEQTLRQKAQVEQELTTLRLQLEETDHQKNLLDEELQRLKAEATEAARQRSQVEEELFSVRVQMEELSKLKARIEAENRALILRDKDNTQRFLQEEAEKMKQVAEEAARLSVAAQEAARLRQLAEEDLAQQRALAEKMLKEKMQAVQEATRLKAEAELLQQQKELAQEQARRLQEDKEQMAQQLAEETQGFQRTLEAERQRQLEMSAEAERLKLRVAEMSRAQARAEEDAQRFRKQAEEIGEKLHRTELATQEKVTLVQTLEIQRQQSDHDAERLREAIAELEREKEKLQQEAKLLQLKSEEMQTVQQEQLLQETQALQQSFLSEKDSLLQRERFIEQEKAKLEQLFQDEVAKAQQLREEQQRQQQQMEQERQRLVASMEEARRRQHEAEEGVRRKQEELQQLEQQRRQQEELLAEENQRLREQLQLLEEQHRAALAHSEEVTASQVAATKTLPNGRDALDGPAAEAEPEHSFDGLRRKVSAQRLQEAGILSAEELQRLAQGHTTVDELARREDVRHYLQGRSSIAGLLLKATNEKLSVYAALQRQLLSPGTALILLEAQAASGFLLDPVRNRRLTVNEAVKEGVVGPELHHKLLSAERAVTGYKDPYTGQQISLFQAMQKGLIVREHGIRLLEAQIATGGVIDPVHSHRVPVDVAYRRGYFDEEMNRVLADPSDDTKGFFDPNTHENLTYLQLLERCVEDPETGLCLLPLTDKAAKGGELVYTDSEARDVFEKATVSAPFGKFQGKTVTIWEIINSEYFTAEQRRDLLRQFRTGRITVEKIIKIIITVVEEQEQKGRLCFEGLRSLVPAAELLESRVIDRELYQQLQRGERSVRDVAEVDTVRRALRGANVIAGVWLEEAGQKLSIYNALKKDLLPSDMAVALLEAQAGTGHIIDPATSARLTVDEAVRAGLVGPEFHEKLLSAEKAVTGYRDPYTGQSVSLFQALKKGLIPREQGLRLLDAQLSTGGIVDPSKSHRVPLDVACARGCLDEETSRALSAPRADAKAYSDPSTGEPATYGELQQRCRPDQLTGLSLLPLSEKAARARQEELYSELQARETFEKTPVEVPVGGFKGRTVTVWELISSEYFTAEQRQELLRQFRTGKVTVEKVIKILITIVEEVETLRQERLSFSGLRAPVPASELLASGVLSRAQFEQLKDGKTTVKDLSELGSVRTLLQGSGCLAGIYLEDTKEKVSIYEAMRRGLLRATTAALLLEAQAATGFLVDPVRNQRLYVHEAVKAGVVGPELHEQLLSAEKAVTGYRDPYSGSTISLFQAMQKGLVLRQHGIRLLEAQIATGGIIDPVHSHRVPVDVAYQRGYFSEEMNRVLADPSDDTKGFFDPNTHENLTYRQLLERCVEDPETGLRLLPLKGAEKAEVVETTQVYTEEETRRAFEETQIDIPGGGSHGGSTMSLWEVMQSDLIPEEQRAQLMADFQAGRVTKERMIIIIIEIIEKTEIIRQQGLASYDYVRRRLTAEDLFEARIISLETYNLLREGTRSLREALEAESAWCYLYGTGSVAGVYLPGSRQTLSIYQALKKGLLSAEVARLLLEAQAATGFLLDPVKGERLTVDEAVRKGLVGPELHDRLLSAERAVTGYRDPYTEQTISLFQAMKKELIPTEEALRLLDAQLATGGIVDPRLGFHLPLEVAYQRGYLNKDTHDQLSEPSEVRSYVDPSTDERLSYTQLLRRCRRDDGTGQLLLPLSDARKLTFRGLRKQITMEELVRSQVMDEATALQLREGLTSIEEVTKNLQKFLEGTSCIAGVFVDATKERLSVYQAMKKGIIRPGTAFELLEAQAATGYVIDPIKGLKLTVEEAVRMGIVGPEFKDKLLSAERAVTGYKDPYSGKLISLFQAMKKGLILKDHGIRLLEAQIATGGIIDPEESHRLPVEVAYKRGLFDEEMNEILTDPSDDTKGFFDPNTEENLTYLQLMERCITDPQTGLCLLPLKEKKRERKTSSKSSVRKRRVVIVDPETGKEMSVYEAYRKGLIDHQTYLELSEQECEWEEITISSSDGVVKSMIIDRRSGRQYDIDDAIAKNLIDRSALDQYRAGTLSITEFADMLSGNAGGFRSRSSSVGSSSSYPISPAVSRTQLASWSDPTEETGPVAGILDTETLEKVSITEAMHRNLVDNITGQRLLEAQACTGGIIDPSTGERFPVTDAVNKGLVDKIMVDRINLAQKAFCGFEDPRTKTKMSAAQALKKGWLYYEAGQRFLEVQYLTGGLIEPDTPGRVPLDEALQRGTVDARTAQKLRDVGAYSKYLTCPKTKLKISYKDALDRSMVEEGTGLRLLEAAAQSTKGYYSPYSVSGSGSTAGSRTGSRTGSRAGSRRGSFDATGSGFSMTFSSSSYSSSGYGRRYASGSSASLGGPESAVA

NQO2 = target: T1, NQO2 (Homo sapiens, UniProt P16083); assay: LiP-Quant, HeLa lysate; type: binding; conditions: peptide EEPIPCTAHWHFGQ
T1 sequence (P16083 1-231): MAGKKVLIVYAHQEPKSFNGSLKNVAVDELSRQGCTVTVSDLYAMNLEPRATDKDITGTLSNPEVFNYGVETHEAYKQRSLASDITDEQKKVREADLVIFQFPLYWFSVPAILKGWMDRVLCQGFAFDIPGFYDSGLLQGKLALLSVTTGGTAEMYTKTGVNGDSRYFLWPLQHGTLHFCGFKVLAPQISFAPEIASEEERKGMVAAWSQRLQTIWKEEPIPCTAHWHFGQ

LIN7C = target: T2, LIN7C (Homo sapiens, UniProt Q9NUP9); assay: LiP-Quant, HeLa lysate; type: binding; conditions: peptide AASEGHSHPR
T2 sequence (Q9NUP9 1-197): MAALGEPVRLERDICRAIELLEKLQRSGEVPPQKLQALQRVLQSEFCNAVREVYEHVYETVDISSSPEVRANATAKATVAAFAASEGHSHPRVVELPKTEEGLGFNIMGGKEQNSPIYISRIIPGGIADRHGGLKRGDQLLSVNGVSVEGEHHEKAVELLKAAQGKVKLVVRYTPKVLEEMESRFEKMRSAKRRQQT

XPO1 (Exportin-1) = XPO1 (Exportin-1) (Homo sapiens, UniProt O14980); assay: LiP-Quant, HeLa lysate; type: binding; conditions: peptide NQCEGIKK
MAPK2K1 = system: MAPK2K1; design: method as in PMID 29191878; conditions: read-out: EC50 measured with alternative methods; cited from earlier work
PP2A/B (PPP2CA;PPP2CB) = assay: LiP-Quant, HeLa lysate; type: binding, human
PP1 = assay: LiP-Quant, HeLa lysate; type: binding, human; conditions: 16 peptides, read-out: median EC50 across LiP-Quant peptides
Description: Next, we focused on kinases and phosphatases as drug targets of particular pharmacological interest, given their frequent dysregulation in disease, particularly in cancer. One common issue with these classes of targets is their variable selectivity, as some of these drugs have more than one protein target in the cell, and frequently bind them with different affinities, thus it is important to characterize these subtle differences to determine the specific modes of actions.

PPP1CA = PPP1CA (Homo sapiens, UniProt P62136); assay: LiP-Quant, HeLa lysate; type: binding; conditions: peptide […]
Chain of PPP1CA (P62136 whole entry): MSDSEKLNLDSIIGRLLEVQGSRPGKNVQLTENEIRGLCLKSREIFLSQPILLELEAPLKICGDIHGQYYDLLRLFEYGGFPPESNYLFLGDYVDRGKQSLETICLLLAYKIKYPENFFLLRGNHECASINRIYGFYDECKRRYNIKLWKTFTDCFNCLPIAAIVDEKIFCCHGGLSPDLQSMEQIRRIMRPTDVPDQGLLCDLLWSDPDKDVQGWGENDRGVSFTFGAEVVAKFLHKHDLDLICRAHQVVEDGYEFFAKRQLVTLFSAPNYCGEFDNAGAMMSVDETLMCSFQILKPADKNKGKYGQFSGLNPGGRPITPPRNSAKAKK

PPP3CA = PPP3CA (Homo sapiens, UniProt Q08209); assay: LiP-Quant, HeLa lysate; type: binding; conditions: peptide SDDELGSEEDGFDGATAAAR
PP2A and PP1 = conditions: cited from earlier work
[1] = target: ATP1A1 (Sodium/potassium-transporting ATPase subunit alpha-1) (Homo sapiens, UniProt P05023); assay: LiP-Quant, membrane enriched HeLa eluate
Description: (§3) HeLa cells were lysed as above (lysate) however 0.3% n-dodecyl-β-D-maltoside (DDM) was added prior to lysis. […] Beads were then centrifuged at 300g for 30 s to pellet and the supernatant was aspirated. Beads were then washed six times (300g, 30 s between washes) and finally eluted in 400 µl of 0.5 M N-acetyl glucosamine (in LiP buffer without detergent) at 4 °C for 30 min. Beads were pelleted at 300g for 30 s and eluate was collected and protein was quantified by BCA test. LiP-Quant assay was performed with membrane enriched eluate in the same manner as described for standard HeLa lysate.

[2] = target: LDLR (Low-density lipoprotein receptor) (Homo sapiens, UniProt P01130); assay: LiP-Quant, membrane enriched HeLa eluate
Description: as §3

[3] = target: T3, RBM27 (RNA-binding protein 27) (Homo sapiens, UniProt Q9P2N5); assay: LiP-Quant, membrane enriched HeLa eluate
T3 sequence (Q9P2N5 1-1060): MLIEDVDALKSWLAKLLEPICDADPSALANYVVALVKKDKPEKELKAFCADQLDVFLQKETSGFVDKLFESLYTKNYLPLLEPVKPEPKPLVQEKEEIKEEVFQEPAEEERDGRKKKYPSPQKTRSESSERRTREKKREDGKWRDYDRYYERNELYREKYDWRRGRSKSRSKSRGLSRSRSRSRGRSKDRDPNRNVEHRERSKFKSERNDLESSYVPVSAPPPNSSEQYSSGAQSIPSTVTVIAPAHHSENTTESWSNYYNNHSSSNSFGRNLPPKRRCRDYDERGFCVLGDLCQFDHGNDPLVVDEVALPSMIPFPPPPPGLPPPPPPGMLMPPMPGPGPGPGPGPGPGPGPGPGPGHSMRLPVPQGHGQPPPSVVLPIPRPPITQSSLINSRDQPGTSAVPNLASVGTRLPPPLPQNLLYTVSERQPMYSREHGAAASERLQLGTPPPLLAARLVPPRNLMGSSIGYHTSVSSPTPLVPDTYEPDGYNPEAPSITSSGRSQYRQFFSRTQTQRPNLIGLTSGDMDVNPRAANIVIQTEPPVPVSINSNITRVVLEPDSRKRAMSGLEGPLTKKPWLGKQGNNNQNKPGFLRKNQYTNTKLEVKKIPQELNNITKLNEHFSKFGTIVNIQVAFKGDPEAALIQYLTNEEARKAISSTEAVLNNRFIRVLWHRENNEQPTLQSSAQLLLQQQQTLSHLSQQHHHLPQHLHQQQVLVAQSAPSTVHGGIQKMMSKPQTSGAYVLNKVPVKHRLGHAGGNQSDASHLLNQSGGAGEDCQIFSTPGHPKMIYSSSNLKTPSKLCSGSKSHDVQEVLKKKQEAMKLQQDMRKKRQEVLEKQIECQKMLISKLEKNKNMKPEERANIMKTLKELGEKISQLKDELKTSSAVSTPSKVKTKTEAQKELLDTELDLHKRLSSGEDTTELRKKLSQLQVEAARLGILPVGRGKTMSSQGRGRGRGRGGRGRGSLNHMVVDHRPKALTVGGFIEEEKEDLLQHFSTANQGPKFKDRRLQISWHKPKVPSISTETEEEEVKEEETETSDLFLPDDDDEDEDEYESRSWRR
Description: as §3

MYH9 (Myosin-9) = MYH9 (Myosin-9) (Homo sapiens, UniProt P35579); assay: LiP-Quant, membrane enriched HeLa eluate
Description: as §3

FKBP1A = FKBP1A (Homo sapiens, UniProt P62942)
Chain of FKBP1A (P62942 whole entry): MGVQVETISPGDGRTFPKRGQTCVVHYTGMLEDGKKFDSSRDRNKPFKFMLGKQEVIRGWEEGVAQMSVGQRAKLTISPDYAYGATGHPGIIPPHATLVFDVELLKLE

ARI1 = target: T4, ARI1 (Saccharomyces cerevisiae, UniProt P53111); assay: LiP-Quant, S. cerevisiae lysates; type: binding; conditions: wild type yeast lysate
T4 construct: Cell lysates from at least three independent biological replicates were aliquoted in equivalent volumes containing 100 µg of proteome sample; endogenous in cells; host or cells: S. cerevisiae (Euroscarf strains), cryo-milled lysate
Description: (§1) To discriminate between these two cases, the same LiP-Quant experiment was performed with lysates where TOR signaling was impaired via a mutation in the tor1 gene and a deletion of the fpr1 gene (tor1-1 Δfpr1)[20].
(§2) Saccharomyces cerevisiae: Cell lysates from at least three independent biological replicates were aliquoted in equivalent volumes containing 100 µg of proteome sample and incubated for 10 min at 25 °C with the drug of interest. […] Samples were then heated again at 98 °C for 3 min in a thermocycler. These samples were then subjected to complete digestion in denaturing conditions as described below.

SYEC = target: T5, SYEC (Saccharomyces cerevisiae, UniProt P46655); assay: LiP-Quant, S. cerevisiae lysates; type: binding; conditions: wild type yeast lysate
T5 construct: Cell lysates from at least three independent biological replicates were aliquoted in equivalent volumes containing 100 µg of proteome sample; endogenous in cells; host or cells: S. cerevisiae (Euroscarf strains), cryo-milled lysate
Description: as §1, §2

[4] = target: T6, FPR1 (FK506-binding protein 1, P20081) (Saccharomyces cerevisiae, UniProt P20081); assay: LiP-Quant, S. cerevisiae lysates (wild type); conditions: Yeast WT; for EC50: EC50 (nM)
T6 construct: Cell lysates from at least three independent biological replicates were aliquoted in equivalent volumes containing 100 µg of proteome sample; endogenous in cells; host or cells: S. cerevisiae wild type (Euroscarf), cryo-milled lysate
T6 sequence (P20081 1-114): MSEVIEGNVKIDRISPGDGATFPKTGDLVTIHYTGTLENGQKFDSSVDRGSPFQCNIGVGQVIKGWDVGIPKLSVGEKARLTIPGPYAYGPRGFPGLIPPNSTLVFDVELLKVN

[5] = FKBP1A peptide LVFDVELLK, Decreasing
[6] = FKBP1A peptide VFDVELLK, Decreasing
[7] = FKBP1A peptide YTGMLEDGK, Decreasing

## Cn1cnc2c(F)c(Nc3ccc(Br)cc3Cl)c(C(=O)NOCCO)cc21 [Selumetinib]
MAPK2K1 (MAP2K1); peptide VSIAVIK (selumetinib sheet) or best peptide of the protein (Supp Data 7)
  LIPscore: 2.617
MAPK2K1 (MAP2K1); peptide VSIAVIK (selumetinib sheet) or protein level (Supp Data 7)
  LIPRank: 3
PLEC (Plectin); dose-response correlation
  DRC: 0.9991
PLEC (Plectin)
  LIPRank: 1
  LIPscore: 3.316
NQO2; dose-response correlation
  DRC: 0.9666
NQO2
  LIPRank: 2
  LIPscore: 3.07
LIN7C; dose-response correlation
  DRC: 0.9974
LIN7C
  LIPRank: 4
  LIPscore: 2.585
XPO1 (Exportin-1); dose-response correlation
  DRC: 0.9996
XPO1 (Exportin-1)
  LIPRank: 5
  LIPscore: 2.504
MAPK2K1
  EC50: 41 nM

## COC[C@@H]([C@H](O)[C@H](O)C(=O)NCC[C@H](C)c1nc(/C=C/C[C@@H]2O[C@]3(C[C@@H](O)[C@@H]2C)O[C@H]([C@H](C[C@H](O)[C@H](C)[C@H](O)[C@H](C)/C=C(C)/C(C)=C/C=C/C(C)=C\C#N)OC)[C@H](OP(=O)(O)O)C3(C)C)co1)N(C)C [Calyculin A]
PP2A/B (PPP2CA;PPP2CB); HeLa lysate, 12 peptides, read-out: median EC50 across LiP-Quant peptides
  EC50: 18 nM
PP2A/B (PPP2CA;PPP2CB); peptide AHQLVMEGYNWCHDR, PPP2CA
  LiP Score: 4.613
PP2A/B (PPP2CA;PPP2CB); peptide AHQLVMEGYNWCHDR, PPP2CA, read-out: EC50
  EC50: 11.4 nM
PP2A/B (PPP2CA;PPP2CB); peptide NVVTIFSAPNYCYR, PPP2CA
  LiP Score: 4.820
PP2A/B (PPP2CA;PPP2CB); peptide NVVTIFSAPNYCYR, PPP2CA, read-out: EC50
  EC50: 19.3 nM
PP2A/B (PPP2CA;PPP2CB); peptide YSFLQFDPAPR, PPP2CA
  LiP Score: 5.385
PP2A/B (PPP2CA;PPP2CB); peptide YSFLQFDPAPR, PPP2CA, read-out: EC50
  EC50: 18.2 nM
PP1
  EC50: 63 nM
PPP1CA
  LiP Rank: 196
  LiP Score: 1.364
PPP3CA
  LiP Rank: 2187
  LiP Score: 0.782
PP2A and PP1
  EC50 ratio difference between PP2A and PP1: 3.5 fold

## C[C@@H]1O[C@@H](O[C@@H]2C=C3CC[C@@H]4[C@H](CC[C@]5(C)[C@@H](c6ccc(=O)oc6)CC[C@]45O)[C@@]3(C)CC2)[C@H](O)[C@H](O)[C@H]1O [proscillaridin A]
[1]
  EC50: 16.4 nM
[1]; peptide AVAGDASESALLK
  DRC: 0.9716
  LiP Rank: 1
  LiP Score: 4.437
[2]
  EC50: 27.3 nM
[2]; peptide TILEDEKR
  DRC: 0.9716
  LiP Rank: 2
  LiP Score: 4.346
[3]
  EC50: 17.3 nM
[3]; peptide LSSGEDTTELR
  DRC: 0.9721
  LiP Rank: 3
  LiP Score: 4.331
MYH9 (Myosin-9)
  EC50: 31 nM
MYH9 (Myosin-9); peptide HSQAVEELAEQLEQTKR
  DRC: 0.9583
  LiP Rank: 4
  LiP Score: 4.317

## C=CC[C@@H]1/C=C(\C)C[C@H](C)C[C@H](OC)[C@H]2O[C@@](O)(C(=O)C(=O)N3CCCC[C@H]3C(=O)O[C@H](/C(C)=C/[C@@H]3CC[C@@H](O)[C@H](OC)C3)[C@H](C)[C@@H](O)CC1=O)[C@H](C)C[C@@H]2OC [FK506]
FKBP1A; [5]
  LiP Rank: 8
  Score: 1.86
FKBP1A; [6]
  LiP Rank: 10
  Score: 1.73
FKBP1A; [7]
  LiP Rank: 4
  Score: 3.01
FKBP1A; FKBP1A peptide […], Decreasing
  LiP Rank: 11
  Score: 1.72
FKBP1A; FKBP1A peptide […], Increasing
  Score: 3.49
FKBP1A; FKBP1A peptide […], Increasing, Supplementary Data 4
  Score: 3.820

## CO[C@H]1C[C@@H]2CC[C@@H](C)[C@@](O)(O2)C(=O)C(=O)N2CCCC[C@H]2C(=O)O[C@H]([C@H](C)C[C@@H]2CC[C@@H](O)[C@H](OC)C2)CC(=O)[C@H](C)/C=C(\C)[C@@H](O)[C@@H](OC)C(=O)[C@H](C)C[C@H](C)/C=C/C=C/C=C/1C [Rapamycin]
ARI1
  LiP-Quant score: > 2.5
SYEC
  LiP-Quant score: > 2.5
[4]; FPR1 peptide _GWDVGIPK_
  EC50: 144 nM
  LiP Rank: 2
  LiP Score: 3.111
[4]; FPR1 peptide _TGDLVTIH_
  EC50: 619 nM
  LiP Rank: 3
[4]; FPR1 peptide _GSPFQCNIGVGQVIK_
  LiP Rank: 1
  LiP Score: 3.228
[4]; FPR1 peptide _RISPGDGATFPK_
  LiP Rank: 4
  LiP Score: 2.974
